Reference: US6514997B2, “Antipicornaviral compounds and compositions, their pharmaceutical uses, and materials for their synthesis” (Agouron Pharmaceuticals, Inc., priority 1999, dated 2003)
Like-named read-outs stand apart in the source and are kept apart here.

Experiments:
coxsackievirus B5 (CVB5) = assay: Anticoxsackieviral cell culture assay (EC50), CVB5; format: cell-based; settings: Enterovirus B
[1] = Cytotoxicity (CC50) in mock-infected H1-HeLa cells, XTT dye reduction; format: cell-based, human; settings: human; for CC50: line of CVB2
Method in brief: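 XTT dye reduction (formazan, 450/650 nm) in H1-HeLa cells, mock-infected, gave CC50.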

[2] = tested on: Coxsackievirus type B3 (CVB3); assay: Anticoxsackieviral cell culture assay (XTT, EC50), CVB3; format: cell-based, coxsackievirus B3 in H1-HeLa cells
Procedure: Anticoxsackieviral Cell Culture Assay:
Coxsackievirus types A-21 (CAV-21) and B3 (CVB3) were purchased from American Type Culture Collection (ATCC, Rockville, Md.). Virus stocks were propagated and antiviral assays were performed in H1-HeLa cells (ATCC). Cells were grown in minimal essential medium with 10% fetal bovine serum (Life Technologies, Gaithersburg, Md.). The ability of the compounds of this invention to protect cells against either CAV-21 or CVB3 infection was measured by the XTT dye reduction method. This method is described in Weislow et al., J. Natl. Cancer Inst. (1989), vol. 81, 577-586. H1-HeLa cells were infected with CAV-21 or CVB3 at a multiplicity of infection (m.o.i.) of 0.025 or 0.075, respectively, or mock-infected with medium only. H1-HeLa cells were plated at 4×10^4 cells per well in a 96-well plate and incubated with appropriate concentrations of the test compound. One day (CVB3) or two days (CAV-21) later, XTT/PMS was added to test plates and the amount of formazan produced was quantified spectrophotometrically at 450/650 nm. […] The therapeutic index (TI) was calculated by dividing the CC50 by the EC50.

coxsackievirus B2 (CVB2) = assay: Anticoxsackieviral cell culture assay (EC50), CVB2; format: cell-based; settings: Enterovirus B
[3] = target: T1, Recombinant rhinovirus 3C protease, serotype 14 (Human rhinovirus 14, UniProt P03303); assay: Inhibition of rhinovirus 3C protease (FRET assay, kobs/[I]), serotype 14; format: biochemical
T1 construct: Recombinant rhinovirus 3C proteases; made in house
T1 sequence (P03303 1538-1719): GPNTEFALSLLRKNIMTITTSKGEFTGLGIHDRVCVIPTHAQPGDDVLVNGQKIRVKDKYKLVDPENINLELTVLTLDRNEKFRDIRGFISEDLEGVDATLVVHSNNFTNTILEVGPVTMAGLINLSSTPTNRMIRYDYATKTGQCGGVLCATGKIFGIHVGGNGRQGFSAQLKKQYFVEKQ
Method in brief: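 kobs/[I] values came from progress curves of reactions started by adding 50-100 nM protease to buffer (50 mM tris pH 7.6, 1 mM EDTA, 2% DMSO) containing compound and ~1 μM quenched DABCYL-EDANS substrate. Rising EDANS fluorescence reported cleavage.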

[4] = tested on: strains of human rhinovirus (HRV); assay: Antirhinoviral H1-HeLa cell culture assay (XTT cell protection, EC50), other HRV strains; format: cell-based, human rhinovirus in H1-HeLa cells; settings: read-out: EC50
Method in brief: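 Protection of H1-HeLa cells from rhinovirus was scored two days post-infection via XTT dye reduction read at 450/650 nm, alongside mock-infected cells for toxicity. CC50/EC50 gives the therapeutic index.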

[5] = H1-HeLa cells, mock-infected, line of HRV-14
[6] = H1-HeLa cells, uninfected (mock-infected), line of CAV-21
[7] = H1-HeLa cells, uninfected (mock-infected)
[8] = H1-HeLa cells, uninfected (mock-infected), line of CVB3
[9] = pH 7.6, HRV-14, read-out: kobs/[I] (3C protease inhibition activity)
[10] = Human rhinovirus sp., H1-HeLa, HRV-Hanks
[11] = Human rhinovirus sp., HRV3, H1-HeLa, HRV-3
[12] = Human rhinovirus sp., HRV9, H1-HeLa, HRV-9
[13] = Human rhinovirus sp., HRV10, H1-HeLa, HRV-10
[14] = Human rhinovirus sp., HRV11, H1-HeLa, HRV-11
[15] = Human rhinovirus sp., HRV13, H1-HeLa, HRV-13
[16] = Human rhinovirus sp., HRV16, H1-HeLa, HRV-16
[17] = Human rhinovirus sp., HRV19, H1-HeLa, HRV-19
[18] = Human rhinovirus sp., HRV25, H1-HeLa, HRV-25
[19] = Human rhinovirus sp., HRV39, H1-HeLa, HRV-39
[20] = Human rhinovirus sp., HRV78, H1-HeLa, HRV-78
[21] = Human rhinovirus sp., HRV87, H1-HeLa, HRV-87
[22] = H1-HeLa cells, mock-infected, HRV-14
[23] = mock-infected (uninfected) H1-HeLa cells, CAV-21
[24] = mock-infected (uninfected) H1-HeLa cells, CVB3
[25] = pH 7.6, HRV-14 3C protease, read-out: kobs/[I] (3C protease inhibition activity)

Row | Compound | EC50 (coxsackievirus B5 (CVB5)) | CC50 at 2 days [1, 5] | CC50 at 2 days [1, 6] | CC50 [1, 7] | CC50 at 1 day [1, 8] | EC50 [2] | EC50 (coxsackievirus B2 (CVB2)) | EC50 ([4]; H1-HeLa, HRV-1A) | EC50 ([4]; H1-HeLa, HRV-2) | EC50 ([4]; H1-HeLa, HRV-23) | EC50 [4, 10] | EC50 [4, 11] | EC50 [4, 12] | EC50 [4, 14] | EC50 [4, 15] | EC50 [4, 16] | EC50 [4, 17] | EC50 [4, 18] | EC50 [4, 19] | EC50 [4, 20] | also measured
1 | CCOC(=O)/C=C/[C@H](C[C@@H]1CCNC1=O)NC(=O)[C@H](CC)n1cccc(NC(=O)c2cc(C)on2)c1=O [Compound 26, trans-(2′S,3″″S,4S)-4-(2′-{3″-[(5′″-Methylisoxazole-3′″-carbonyl)amino]-2″-oxo-2″H-pyridin-1″-yl}butyrylamino)-5-(2″″-oxopyrrolidin-3″″-yl)pent-2-enoic Acid Ethyl Ester] | 18 nM | > 10 µM | > 10 µM | > 10 µM | > 10 µM | 16 nM | 55 nM | 14 nM | 16 nM | 40 nM | 54 nM | 29 nM | 45 nM | 4 nM | 58 nM | 50 nM | 65 nM | 102 nM | 47 nM | 57 nM | kinact/KI [3, 9]: 170000 M⁻¹ s⁻¹; EC50 [4, 13]: 27 nM; EC50 [4, 21]: 21 nM
2 | C#CC[C@@H](C(=O)N[C@H](/C=C/C(=O)OCC)C[C@@H]1CCNC1=O)n1cccc(NC(=O)c2cc(C)on2)c1=O [Compound 31, trans-(2′S,3″″S,4S)-4-(2′-{3″-[(5′″-Methyl-isoxazole-3′″-carbonyl)amino]-2″-oxo-2″H-pyridin-1″-yl}pent-4′-ynoyl-amino)-5-(2″″-oxopyrrolidin-3″″-yl)pent-2-enoic Acid Ethyl Ester] | 47 nM | > 10 µM | > 10 µM | > 10 µM | > 10 µM | 24 nM | 57 nM | 36 nM | 13 nM | 42 nM | 49 nM | 21 nM | 44 nM | 5 nM | 60 nM | 38 nM | 50 nM | 87 nM | 43 nM | 61 nM | kinact/KI ([3]; pH 7.6, read-out: kobs/[I] (3C protease inhibition activity)): 223000 M⁻¹ s⁻¹; EC50 [4, 13]: 48 nM; EC50 [4, 21]: 21 nM
3 | CCOC(=O)/C=C/[C@H](C[C@@H]1CCNC1=O)NC(=O)[C@H](Cc1ccc(F)c(F)c1)n1cccc(NC(=O)c2cc(C)on2)c1=O [Compound 33, trans-(2′S,3′″″S,4S)-4-(3′-(3″,4″-Difluorophenyl)-2′-{3′″-[(5″″-methylisoxazole-3″″-carbonyl)amino]-2′″-oxo-2′″H-pyridin-1′″-yl}propionylamino)-5-(2′″″-oxopyrrolidin-3′″″-yl)pent-2-enoic Acid Ethyl Ester] | 25 nM | > 10 µM | > 10 µM | > 10 µM | > 10 µM | 3 nM | 15 nM |  | 3 nM | 3 nM | 5 nM | 3 nM | 15 nM | 3 nM | 14 nM | 6 nM | 4 nM | 28 nM | 4 nM | 5 nM | kinact/KI [3, 9]: 1.8e+06 M⁻¹ s⁻¹; EC50 [4, 21]: 5 nM
4 | C#CC[C@@H](C(=O)N[C@H](/C=C/C(=O)OC(C)(C)C)C[C@@H]1CCNC1=O)n1cccc(NC(=O)c2cc(C)on2)c1=O [Compound 41, trans-(2′S,3′″″S,4S)-4-[2′-(3″-{[1′″-(5″″-Methylisoxazol-3″″-yl)methanoyl]amino}-2′″-oxo-2′″H-pyridin-1′″-yl)pent-4″-ynoylamino]-5-(2′″″-oxopyrrolidin-3′″″-yl)pent-2-enoic Acid tert-Butyl Ester] | 199 nM | > 10 µM | > 10 µM | > 10 µM | > 10 µM | 117 nM | 213 nM |  | 155 nM |  |  | 54 nM | 562 nM |  |  | 416 nM |  | 829 nM | 445 nM |  | kinact/KI [3, 9]: 60500 M⁻¹ s⁻¹; EC50 [4, 21]: 60 nM
5 | Cc1cc(C(=O)Nc2cccn([C@@H](Cc3ccc(F)c(F)c3)C(=O)N[C@H](/C=C/C(=O)OC(C)C)C[C@@H]3CCNC3=O)c2=O)no1 [Compound 48, trans-(2′S,3″″″S,4S)-4-[3′-(3″,4″-Difluorophenyl)-2′-(3′″-{[1″″-(5′″″-methylisoxazol-3′″″-yl)methanoyl]amino}-2″″-oxo-2″″H-pyridin-1″″-yl)propanoylamino]-5-(2″″″-oxopyrrolidin-3″″″-yl)pent-2-enoic Acid Isopropyl Ester] | 178 nM | > 10 µM | > 10 µM | > 10 µM | > 10 µM | 187 nM | 162 nM | 132 nM | 48 nM | 10 nM | 3 nM | 33 nM | 109 nM | 3 nM | 44 nM | 36 nM | 9 nM | 100 nM | 44 nM | 12 nM | EC50 [4, 13]: 85 nM
6 | CC[C@@H](C(=O)N[C@H](/C=C/C(=O)OCc1ccccc1)C[C@@H]1CCNC1=O)n1cccc(NC(=O)c2cc(C)on2)c1=O [Compound 62, trans-(2′S,3′″″S,4S)-4-[2′-(3″-{[1′″-(5″″-Methylisoxazol-3″″-yl)methanoyl]amino}-2′″oxo-2′″H-pyridin-1′″-yl)butanoylamino]-5-(2′″″-oxopyrrolidin-3′″″-yl)pent-2-enoic Acid Benzyl Ester] |  |  |  |  |  |  |  | 17 nM | 45 nM | 32 nM | 52 nM | 52 nM | 130 nM | 10 nM | 4 nM | 53 nM | 21 nM | 18 nM | 43 nM | 57 nM | CC50 at 2 days [1, 22]: > 10 µM; CC50 at 2 days [1, 23]: > 10 µM; CC50 at 1 day [1, 24]: > 10 µM; EC50 ([2]; H1-HeLa): 15 nM; kinact/KI [3, 25]: 210000 M⁻¹ s⁻¹; EC50 [4, 13]: 52 nM
7 | C#CC[C@@H](C(=O)N[C@H](/C=C/C(=O)OCc1ccccc1)C[C@@H]1CCNC1=O)n1cccc(NC(=O)c2cc(C)on2)c1=O [Compound 63, trans-(2′S,3′″″S,4S)-4-[2′-(3″-{[1′″-(5″″-Methylisoxazol-3″″-yl)methanoyl]amino}-2′″-oxo-2′″H-pyridin-1′″-yl)pent-4″-ynoylamino]-5-(2′″″-oxopyrrolidin-3′″″-yl)pent-2-enoic Acid Benzyl Ester] |  |  |  |  |  |  |  | 12 nM | 24 nM | 37 nM | 400 nM | 27 nM | 65 nM | 17 nM | 45 nM | 46 nM | 14 nM | 7 nM | 35 nM | 34 nM | CC50 at 2 days [1, 22]: > 10 µM; CC50 at 2 days [1, 23]: > 10 µM; CC50 at 1 day [1, 24]: > 10 µM; EC50 ([2]; H1-HeLa): 14 nM; kinact/KI [3, 25]: 300000 M⁻¹ s⁻¹; EC50 [4, 13]: 46 nM
